Laboratory results taken from article PMC11768932, “Pharmacokinetic Evaluation of Neutral Sphinghomyelinase2 (nSMase2) Inhibitor Prodrugs in Mice and Dogs” (Pharmaceutics, 2024).
Values joined by “and” are separate entries in the source; they are usually repeats but may differ in a detail not shown here. Equal values may be shown once. Where a name gives a salt, the structure may show the parent alone. Read-outs that look alike come from different tables or passages of the source. Blank lines part the entries; values can stand above or below the molecule they belong to.

Key:
[1] = In vitro stability in dog plasma; format: in vitro ADME; settings: 37 °C; for remaining at 1 h, 10 μM: dog, 60 min, read-out: In Vitro Stability in Plasma (% Remaining at 60 min) Mean ± SEM (n = 3), Dogs; for In Vitro Stability in Plasma (% Remaining at 60 min) Mean ± SEM (n = 3), Dogs: 10 μM
Description: (§1) The in vitro metabolic stability analysis of DPTIP prodrugs was performed in the plasma of mice, dogs, and humans, as previously described. Briefly, for plasma stability, 1 mL of plasma was spiked with 10 μM of the respective prodrug followed by incubation in an orbital shaker at 37 °C for 1 h (in triplicate). The samples from each incubation at predetermined time points (0 and 60 min) was quenched with 3× volume of acetonitrile containing the internal standard (IS; losartan: 0.5 μM). The samples were vortex-mixed for 30 s and centrifuged at 10,000× g for 10 min at 4 °C. Compound disappearance over time was monitored via a Dionex ultra-high-performance LC system coupled with a Q Exactive Focus orbitrap mass spectrometer (Thermo Fisher Scientific Inc., Waltham, MA, USA). Quantification of the prodrugs was performed in full scan mode (from m/z 75 to 1125) by comparing t = 0 min samples with t = 60 min samples.

[2] = In vitro stability in human plasma; format: in vitro ADME; settings: 37 °C; for remaining at 1 h, 10 μM: human, 60 min, read-out: In Vitro Stability in Plasma (% Remaining at 60 min) Mean ± SEM (n = 3), Humans; for In Vitro Stability in Plasma (% Remaining at 60 min) Mean ± SEM (n = 3), Humans: 10 μM
Description: as §1

[3] = Pharmacokinetic study in dogs, released DPTIP in plasma after IV or peroral dose; format: in vivo, male Beagle dogs
Description: The PK studies in dogs were performed in accordance with the guidelines recommended by Pharmaron (San Diego, CA, USA) Institutional Animal Care and Use Committee. Briefly, male Beagle dogs 9 to 11 kg were obtained from the test facility’s colony of non-naïve animals. The animals were fasted overnight prior to dose administration and fed 4 h after dosing. The body weights were recorded and the animals were dosed with DPTIP, and prodrugs 2, 3, 4, 6, 7, 8, and 9 at 2 mg/kg equivalent of DPTIP as a single preoral dose PO (n = 2) with the exception of DPTIP IV dosed at 1 mg/kg (n = 1). All drugs were dissolved in the formulations (5% NMP, 5% Kolliphor, 30% PEG, and 60% water v/v) made freshly prior to dosing. The blood samples were collected via a cephalic vein at specified time points (0.083, 0.25, 0.5, 1, 2, 4, 6, 8, and 24 h) post-drug administration, and transferred into tubes containing sodium fluoride as a stabilizer (10 µL/mL of 500 µg/mL). The tubes were stored on wet ice until processed to plasma by centrifugation (3500× g at 4 °C for 10 min) within 30 min of collection. The plasma samples were transferred into individually labeled matrix tubes and stored at nominal −80 °C immediately (within 10 min of separation) until bioanalysis.
The quantification of the released DPTIP was performed using our previously published method with minor modifications. Briefly, calibration standards were prepared by spiking the DPTIP into naïve plasma from mice and dogs. All the calibration curves were constructed in the range of 1–3000 pmol/mL in the naïve sample-matched matrices in both the mouse and dog samples. Linear regression with 1/(nominal concentration) weighting factor was used for fitting the calibration curve. A correlation coefficient greater than 0.99 was considered acceptable in the analytical runs for all analyses.
The plasma samples from both mice and dogs were processed through simple protein precipitation. For this, 20 µL of plasma was mixed with 100 µL methanol containing 0.5 µM losartan (internal standards; IS) in low retention microcentrifuge tubes. All samples were vortex-mixed and centrifuged at 16,000× g for 5 min at 4 °C. A 50 µL of aliquot of supernatant was diluted with 50 µL of LC-MS water transferred to a 96-well polypropylene autosampler sealed with a Teflon cap. A volume of 2 µL was injected onto the ultra-performance liquid chromatography instrument for quantitative analysis using a temperature-controlled autosampler operating at 4 °C. Chromatographic separation was performed using a Thermo Scientific Vanquish ultra-high-performance system consisting of an analytical pump and coupled with a TSQ Altis mass spectrometer. The analytes were separated using an Agilent Eclipse Plus column (100 × 2.1 mm i.d, 1.8 μm) maintained at 35 °C. The (M+H)^+ ion transition of DPTIP (m/z 378.85 → 363.07, 200.05) and losartan (IS) (m/z 423.2 → 207.10, 180.88) were used. A gradient method was used with a mobile phase composition of 0.1% formic acid in acetonitrile and 0.1% formic acid in water.
The plasma concentrations (pmol/mL) for the mice were quantified, and plots of mean plasma concentration versus time were constructed using GraphPad Prism (10.3.0). Similarly, plasma concentrations (pmol/mL) for the dogs were measured and corresponding mean plasma concentration versus time plots were generated. The plasma concentrations in both mice and dogs were analyzed using a noncompartmental analysis method as implemented in the computer software program Phoenix WinNonlin version 8.4 (Certara USA Inc., Princeton, NJ, USA). The maximum plasma concentration (Cmax) and time to Cmax (Tmax) were the observed values. The area under the plasma concentration–time curve (AUC) values were calculated to the last quantifiable sample (AUC0–t) using the log-linear trapezoidal rule. The oral bioavailability was calculated by AUCPO divided by AUC IV with dose normalization. […]

[4] = test system: nSMase2; settings: cited from earlier work
[5] = set-up: method as in PMID 35930706; settings: cited from earlier work; for Cmax / Tmax / t(1/2) / AUC0–t: released DPTIP in plasma, CES1−/− mice, PO 10 mg/kg DPTIP or equivalent, previously published
[6] = set-up: method as in PMID 30531925, PMID 30921693; settings: cited from earlier work
[7] = test system: rat brain nSMase2; set-up: method as in PMID 33395289; settings: cited from earlier work
[8] = Pharmacokinetic study in CES1−/− mice, released DPTIP in plasma after peroral dose; format: in vivo, C57BL/6 CES1−/− mice; settings: PO 10 mg/kg DPTIP equivalent
Description: In vivo mice PK studies were carried out as previously described. Briefly, mice PK studies were carried out in CES1^−/− mice according to protocols approved by the Animal Care and Use Committee at Johns Hopkins University. The C57BL/6 CES1^−/^− mice were received from the United States Army Medical Research Institute of Chemical Defense, Maryland, and maintained on a 12 h light−dark cycle with ad libitum access to food and water. Prodrugs 3, 4, 5, 6, 8, and 9 were administered at a dose of 10 mg/kg equivalent of DPTIP to CES1^−/− mice as a single peroral (PO) dose made fresh in formulation (5% DMSO, 10% tween, and 85% saline v/v/v) prior to dosing. […]
The quantification of the released DPTIP was performed using our previously published method with minor modifications. […]
The plasma samples from both mice and dogs were processed through simple protein precipitation. […] A volume of 2 µL was injected onto the ultra-performance liquid chromatography instrument for quantitative analysis using a temperature-controlled autosampler operating at 4 °C. […]
The plasma concentrations (pmol/mL) for the mice were quantified, and plots of mean plasma concentration versus time were constructed using GraphPad Prism (10.3.0). Similarly, plasma concentrations (pmol/mL) for the dogs were measured and corresponding mean plasma concentration versus time plots were generated. […]

[9] = set-up: method as in PMID 35930706; settings: CES1−/− mouse plasma, 10 μM, 37 °C, previously published; cited from earlier work
[10] = In vitro stability in mouse plasma; format: in vitro ADME; settings: CES1−/−, 37 °C, 60 min, read-out: In Vitro Stability in Plasma (% Remaining at 60 min) Mean ± SEM (n = 3), Mice
Description: as §1

[11] = set-up: method as in PMID 8593015; settings: valine ester prodrug, transport via PEPT1 in the intestine; cited from earlier work

- remaining at 1 h, 10 μM [1]: > 90%
- remaining at 1 h, 10 μM [2]: > 90%
- t(1/2) ([3]; IV 1 mg/kg (n = 1), 1 mg/kg): 3.71 h
- clearance ([3]; male, Beagle, dog, plasma, IV 1 mg/kg, read-out: clearance (CL)): 12 mL/min/kg
- C0 ([3]; male, Beagle, dog, plasma, IV 1 mg/kg, read-out: initial plasma concentration (C0)): 2500 nM
- Vd ([3]; male, Beagle, dog, plasma, IV 1 mg/kg, read-out: volume of distribution (Vd)): 3.8 L/kg
- half-life ([3]; male, Beagle, dog, plasma, iv, 1 mg/kg, IV 1 mg/kg (n = 1)): 3.7 h
- AUC(0-t) ([3]; male, Beagle, dog, plasma, iv, 1 mg/kg, IV 1 mg/kg, read-out: exposures (AUC0–t)): 3.9 µM·h
- Cmax ([3]; male, Beagle, dog, plasma, iv, 1 mg/kg, IV 1 mg/kg, read-out: maximum plasma concentration (Cmax)): 2400 nM
- AUC(0-t) ([3]; male, Beagle, dog, plasma, iv, 1 mg/kg, IV 1 mg/kg, value dose adjusted to 2 mg/kg, read-out: AUC0–t): 7.81 µM·h
- Cmax ([3]; male, Beagle, dog, plasma, iv, 1 mg/kg, IV 1 mg/kg, value dose adjusted to 2 mg/kg, read-out: Cmax): 4800 nM
Compound: COc1cc(-c2nc(-c3cccs3)c(-c3ccccc3)[nH]2)cc(OC)c1O [DPTIP, 2,6-dimethoxy-4-(5-phenyl-4-(thiophen-2-yl)-1H-imidazol-2-yl)-phenol]
- IC50 [4]: 30 nM
- Cmax [5]: 307 ± 93.9 nM
- Tmax [5]: 0.25 h
- t(1/2) [5]: 0.46 h
- half-life (t1/2) ([6]; as given in abstract): ≤ 0.5 h
- half-life ([6]; mice): < 0.5 h
- oral bioavailability (%F) ([6]; mice): < 5%

Compound: O=C(/C=C/c1ccc(/C=C/C(=O)Nc2ccc(C3=NCCN3)cc2)cc1)Nc1ccc(C2=NCCN2)cc1 [GW4869]
- IC50 [7]: 1000 nM

Compound: COc1cc(-c2nc(-c3ccccc3)c(-c3cccs3)[nH]2)cc(OC)c1OC(=O)N1CCC(N2CCCCC2)CC1 [Prodrug 2]
- remaining at 1 h, 10 μM [1]: > 90%
- remaining at 1 h, 10 μM [2]: > 90%
- AUC0–t [5]: 273 ± 36.8 pmol·h/mL
- Cmax [5]: 149 ± 9.9 nM
- Tmax [5]: 1 h
- t(1/2) [5]: 1.4 h

- In Vitro Stability in Plasma (% Remaining at 60 min) Mean ± SEM (n = 3), Dogs [1]: 62.9 ± 7.2%
- remaining at 1 h, 10 μM [1]: ~60%
- In Vitro Stability in Plasma (% Remaining at 60 min) Mean ± SEM (n = 3), Humans [2]: 79.3 ± 1.4%
- remaining at 1 h, 10 μM [2]: ~80%
- fold increase in DPTIP half-life compared to DPTIP [8]: no significant improvement
Compound: CCCCCC(=O)Oc1c(OC)cc(-c2nc(-c3ccccc3)c(-c3cccs3)[nH]2)cc1OC [Prodrug 3]

Compound: COc1cc(-c2nc(-c3ccccc3)c(-c3cccs3)[nH]2)cc(OC)c1OC(=O)N(C)C [Prodrug 4]
- remaining at 1 h, 10 μM [1]: > 90%
- remaining at 1 h, 10 μM [2]: > 90%

Compound: CCCCCN(C)C(=O)Oc1c(OC)cc(-c2nc(-c3ccccc3)c(-c3cccs3)[nH]2)cc1OC [Prodrug 5]
- In Vitro Stability in Plasma (% Remaining at 60 min) Mean ± SEM (n = 3), Dogs [1]: 49.5 ± 1.0%
- remaining at 1 h, 10 μM [1]: 40 to 77%
- In Vitro Stability in Plasma (% Remaining at 60 min) Mean ± SEM (n = 3), Humans [2]: 42.3 ± 2.1%
- remaining at 1 h, 10 μM [2]: 40 to 77%
- In Vitro Stability in Plasma (% Remaining at 60 min) Mean ± SEM (n = 3), Mice [9]: 59.9 ± 5.8 %

- remaining at 1 h, 10 μM [1]: > 90%
- remaining at 1 h, 10 μM [2]: > 90%
- fold increase in DPTIP half-life compared to DPTIP [8]: no significant improvement
Compound: COc1cc(-c2nc(-c3ccccc3)c(-c3cccs3)[nH]2)cc(OC)c1OCOP(=O)(O)O [Prodrug 6]

Compound: CCC1CC(N2CCCCC2)CC(CC)N1C(=O)Oc1c(OC)cc(-c2nc(-c3ccccc3)c(-c3cccs3)[nH]2)cc1OC (centres unmarked) [Prodrug 7]
- remaining at 1 h, 10 μM [1]: > 90%
- remaining at 1 h, 10 μM [2]: > 90%
- fold increase in DPTIP plasma exposure (AUC0–t) compared to DPTIP ([5]; mice, PO): > 4 fold and 4 fold
- AUC0–t [5]: 1047 ± 101 ^α pmol·h/mL
- Cmax [5]: 191 ± 39.6 nM
- Tmax [5]: 2 h
- t(1/2) [5]: 2.7 h

- remaining at 1 h, 10 μM [1]: ~0%
- remaining at 1 h, 10 μM [2]: ~0%
Compound: COc1cc(-c2nc(-c3ccccc3)c(-c3cccs3)[nH]2)cc(OC)c1OC(=O)[C@@H](N)C(C)C [Prodrug 8, 2,6-Dimethoxy-4-(4-phenyl-5-(thiophen-2-yl)-1H-imidazol-2-yl) phenyl L-valinate hydrochloride]

- remaining at 1 h, 10 μM [10]: 40 to 77%
- In Vitro Stability in Plasma (% Remaining at 60 min) Mean ± SEM (n = 3), Dogs [1]: 76.3 ± 1.8%
- In Vitro Stability in Plasma (% Remaining at 60 min) Mean ± SEM (n = 3), Humans [2]: 76.4 ± 1.4%
Compound: COc1cc(-c2nc(-c3ccccc3)c(-c3cccs3)[nH]2)cc(OC)c1OC(=O)[C@@H](NC(=O)[C@@H](N)C(C)C)C(C)C [Prodrug 9]

Compound: CC(C)[C@H](N)C(=O)OCCOCn1cnc2c(=O)[nH]c(N)nc21 [valacyclovir]
- fold increase in oral bioavailability [11]: 3–5 fold
